Measured values reported in patent publication US11077126B2 (priority 2017, dated 2021).

What was measured:
[1] = system: transplanted tumor of human breast cancer MCF-7 cells; experiment: Human breast cancer (MCF-7) in nude mice model; conditions: MCF-7 nude mice; 30 mg/kg i.g. 30 d
Experimental: (§1) Then cell concentration was adjusted to 1×10^7/ml with matrigel, and then each nude mouse was inoculated subcutaneously with 0.2 ml of cells at its right armpit and recorded as the first day of inoculation. […] Each group was continuously administered intragastrically for 30 days with a dose of 20 ml/kg. The mice were sacrificed the next day after drug withdrawal and the indicators were tested. The long diameter and short diameter of the tumor, and the body weight of each mouse were recorded every 3 days from drug administration to nude mouse sacrifice.
(§2) The body weight of the nude mice and the long diameter (a) and short diameter (b) of the transplanted tumor were measured every 3 days, and the tumor volume (v), relative tumor volume (RTV) and relative tumor proliferation rate (T/C) are calculated respectively according to the following formulas, wherein V=a×b^2/2; RTV=V/V0 (V0 is the tumor volume before administration, V is the tumor volume before sacrifice), and T/C (%)=treatment group RTV/model control group RTV×100%.
(§3) Each mouse was weighed and sacrificed. After the tumor was completely stripped off from the body of the mouse, the non-tumor tissues such as blood stains and fat were removed to weigh the tumor and calculate the tumor growth inhibition rate. The average tumor weight of each group of mice is used as an indicator of efficacy. Tumor growth inhibition rate (%)=(1−the average tumor weight of the treatment group/the average tumor weight of the model group)×100%.

[2] = system: transplanted tumor of human colon cancer HT-29 cells; experiment: Human colon cancer in nude mice model; conditions: HT-29 nude mice; 30 mg/kg i.g. 30 d
Experimental: as §1, with “matrigel,” for “matrigel, and”
as §2, §3

[3] = system: transplanted tumor of human hepatocarcinoma HepG-2 cells; experiment: Human hepatocarcinoma in nude mice model; conditions: HepG-2 nude mice; 30 mg/kg i.g. 30 d
Experimental: as §1, §2, §3

[4] = system: transplanted tumor of human breast cancer MDA-MB-231 cells; experiment: Human breast cancer (MDA-MB-231) in nude mice model; conditions: MDA-MB-231 nude mice; 30 mg/kg i.g. 30 d
Experimental: as §1, §2, §3

[5] = system: transplanted tumor of human renal clear cell adenocarcinoma 786-O cells; experiment: Human renal clear cell adenocarcinoma in nude mice model; conditions: 786-O nude mice; 30 mg/kg i.g. 30 d
Experimental: as §1, with “786-O cells in a logarithmic growth phase were taken and subjected to a trypan blue exclusion experiment showing that the cell viability was more than 95%, then the cells were subjected to trypsinization, centrifugation, and supernatant removal. Then” for “Then”
as §2, §3

[6] = system: transplanted tumor of human glioma U251 cells; experiment: Human glioma in nude mice model; conditions: 30 mg/kg i.g. 30 d
Experimental: as §1, with “Then matrigel” for “Then”, “of” for “of the”
as §2, §3

[7] = system: transplanted tumor of human glioblastoma A172 cells; experiment: Human glioblastoma in nude mice model; conditions: 30 mg/kg i.g. 30 d
Experimental: as §1, with “matrigel,” for “matrigel, and”
as §2, §3

[8] = system: spleen of A549 lung cancer tumor-bearing mice; format: in vivo
Experimental: (§4) After the tumor-bearing mice are sacrificed, the spleen and thymus are weighed, and the spleen index and thymus index are calculated.

[9] = system: thymus and spleen of H22 liver cancer tumor-bearing mice; format: in vivo
Experimental: as §4

[10] = system: thymus and spleen of Lewis lung cancer tumor-bearing mice; experiment: Thymus index and spleen index of Lewis lung cancer tumor-bearing mice; format: in vivo, C57BL/6 mouse
Experimental: as §4

[11] = 26 mg/kg, positive drug group, n = 6
[12] = H22 tumor-bearing mice, cyclophosphamide, P<0.01

SMILES: O=P1(N(CCCl)CCCl)NCCCO1 (centres unmarked) [Cyclophosphamide]
- Body Weight (g)(d1) [1]: 21.93 ± 0.89 g
- Body Weight (g)(d30) [1]: 19.79 ± 1.47 g
- Inhibition Rate (%) [1]: 62.3%
- Relative Tumor Proliferation Rate(T/C) [1]: 30.58%
- Relative Tumor Volume (RTV) [1]: 5.00 ± 1.27
- Tumor Volume (mm3) (d1) [1]: 127.68 ± 14.89 mm3
- Tumor Volume (mm3) (d30) [1]: 638.62 ± 123.11 mm3
- Tumor Weight [1]: 0.72 ± 0.21 g
- Body Weight (g)(d1) [2]: 23.76 ± 01.11 g
- Body Weight (g)(d30) [2]: 21.52 ± 01.32 g
- Inhibition Rate (%) [2]: 67.38%
- Relative Tumor Proliferation Rate(T/C) [2]: 25.71%
- Relative Tumor Volume (RTV) [2]: 5.21 ± 0.70
- Tumor Volume (mm3) (d1) [2]: 156.61 ± 5.92 mm3
- Tumor Volume (mm3) (d30) [2]: 816.17 ± 21.03 mm3
- Tumor Weight [2]: 0.40 ± 0.03 g
- Body Weight (g)(d1) [3]: 22.67 ± 1.54 g
- Body Weight (g)(d30) [3]: 21.52 ± 1.99 g
- Inhibition Rate (%) [3]: 63.48%
- Relative Tumor Proliferation Rate(T/C) [3]: 32.55%
- Relative Tumor Volume (RTV) [3]: 4.27 ± 0.26
- Tumor Volume (mm3) (d1) [3]: 146.12 ± 2.30 mm3
- Tumor Volume (mm3) (d30) [3]: 623.67 ± 28.44 mm3
- Tumor Weight [3]: 0.46 ± 0.07 g
- Body Weight (g)(d1) [4]: 21.28 ± 0.95 g
- Body Weight (g)(d30) [4]: 19.79 ± 1.03 g
- Inhibition Rate (%) [4]: 79.75%
- Relative Tumor Proliferation Rate(T/C) [4]: 28.59%
- Relative Tumor Volume (RTV) [4]: 3.46 ± 0.70
- Tumor Volume (mm3) (d1) [4]: 169.73 ± 11.79 mm3
- Tumor Volume (mm3) (d30) [4]: 587.27 ± 30.47 mm3
- Tumor Weight [4]: 0.27 ± 0.11 g
- Body Weight (g)(d1) [5]: 21.57 ± 1.31 g
- Body Weight (g)(d30) [5]: 20.39 ± 1.02 g
- Inhibition Rate (%) [5]: 71.36%
- Relative Tumor Proliferation Rate(T/C) [5]: 19.93%
- Relative Tumor Volume (RTV) [5]: 3.34 ± 0.68
- Tumor Volume (mm3) (d1) [5]: 181.48 ± 31.63 mm3
- Tumor Volume (mm3) (d30) [5]: 606.14 ± 14.34 mm3
- Tumor Weight [5]: 0.62 ± 0.17 g
- Body Weight (g)(d1) [6]: 22.24 ± 1.53 g
- Body Weight (g)(d30) [6]: 19.92 ± 1.68 g
- Inhibition Rate (%) [6]: 79.74%
- Relative Tumor Proliferation Rate(T/C) [6]: 56.84%
- Relative Tumor Volume (RTV) [6]: 5.75 ± 1.22
- Tumor Volume (mm3) (d1) [6]: 98.40 ± 25.25 mm3
- Tumor Volume (mm3) (d30) [6]: 566.33 ± 39.32 mm3
- Tumor Weight [6]: 0.42 ± 0.10 g
- Body Weight (g)(d1) [7]: 22.89 ± 1.22 g
- Body Weight (g)(d30) [7]: 19.27 ± 1.49 g
- Inhibition Rate (%) [7]: 68.68%
- Relative Tumor Proliferation Rate(T/C) [7]: 75.42%
- Relative Tumor Volume (RTV) [7]: 11.78 ± 3.25
- Tumor Volume (mm3) (d1) [7]: 122.41 ± 14.06 mm3
- Tumor Volume (mm3) (d30) [7]: 1430.80 ± 134.31 mm3
- Tumor Weight [7]: 0.85 ± 0.18 g
- Spleen Index (%) [8, 11]: 0.20 ± 0.03 %
- spleen index compared with the control group ([8]; A549 lung cancer tumor-bearing mice, cyclophosphamide, P<0.01): significantly lower
- Spleen Index (%) ([9]; 26 mg/kg, positive drug group): 0.38 ± 0.09 %
- Thymus Index (%) ([9]; 26 mg/kg, positive drug group): 0.04 ± 0.02 %
- spleen index compared with the control group [9, 12]: significantly lower
- thymus index compared with the control group [9, 12]: significantly lower
- Spleen Index (%) [10, 11]: 0.41 ± 0.12 %
- Thymus Index (%) [10, 11]: 0.12 ± 0.09%
- spleen index compared with the control group ([10]; Lewis lung cancer tumor-bearing mice, cyclophosphamide, P<0.01): significantly lower
